Results from patent publication US20070015830A1, “Use of a retinoid type compound to modulate in vivo the decoupling activity of the protein UCP2” (priority 1997, published 2007).
Entries after “also recorded” stand apart in the source; their conditions may differ.

What was measured:
UCP2 protein [1] = biological target: T1, UCP2 protein (Mus musculus, UniProt P70406); assay: Respiration stimulation factor in mitochondria of recombinant yeast expressing UCP2; type: biochemical, mice; conditions: for activation of the activity of UCP2 protein: pH not stated
T1 construct: lacking the untranslated regions 5′ and 3′ is obtained by enzymatic amplification; expressed in transfected cells; host or cells: Saccharomyces cerevisiae diploid W303, vector pYeDP-1/8-10; isolated mitochondria
T1 sequence (P70406 1-309): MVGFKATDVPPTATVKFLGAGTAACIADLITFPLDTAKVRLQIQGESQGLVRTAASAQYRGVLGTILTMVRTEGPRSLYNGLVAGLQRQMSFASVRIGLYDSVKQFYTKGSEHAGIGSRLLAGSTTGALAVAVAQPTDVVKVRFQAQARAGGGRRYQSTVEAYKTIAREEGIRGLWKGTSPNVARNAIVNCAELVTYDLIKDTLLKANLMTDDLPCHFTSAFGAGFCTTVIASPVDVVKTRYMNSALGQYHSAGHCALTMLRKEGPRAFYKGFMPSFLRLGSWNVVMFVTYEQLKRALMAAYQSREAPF
Text: The effect of this type of compounds particularly on the activity of UCP2 protein, has been shown on a yeast model. The test consists in constructing yeast layers of recombinant Saccharomyces cervisiae yeasts being capable of expressing UCP2 protein, extracting UCP2 proteins from the mitochondria and measuring the activity of UCP2 protein in the presence or in the absence of retinoic acid. In the model which has been retained, the uncoupling activity of the UCP2 proteins is quantitatively measured by means of the factor of stimulation of respiration.
(§1) This factor corresponds to the ratio of respiration and baseline respiration, measured or in the absence of retinoic acid (when measurements are made at a constant pH but varying the concentration of retinoic acid) or at pH 6.8 (when measurements are made at a given concentration of retinoic acid, but varying the pH).
(§2) Respiration is determined by measurement of the quantity of consumed oxygen, expressed in nanomoles of oxygen per minute and milligram of mitochondrial proteins, the consumption of oxygen being directly linked to the quantity of substrate having been consumed by the mitochondria (in calories).
The cDNA of UCP2 proteins of mice (C. Fleury et al. (1997) Uncoupling protein-2: A novel gene linked to obesity and hyperinsulinaemia, Nature Genetics, 15, 269-272) lacking the untranslated regions 5′ and 3′ is obtained by enzymatic amplification with the following oligonucleotides:
The resulting DNA product is repaired with a Kleenow enzyme, thereafter cut with EcoRl and Sacl. This forces donation in the pYeDP-1/8-10 vector. In each case, the insertion of cDNA encoding for UCP2 protein in the pYeDP vector has been sequenced so as to verify that the encoding sequence had the expected properties. The UCP2-expressing pYeDP-YCP vector is introduced in a diploid W303 strain of Saccharomyces cervisiae yeast ([…]; ade2-10; his3-11,15; leu2-3,112; ura3-1; canl-100; trp-) by electroporation and the transformants are selected for their […].
A process derived from that described by Guérin et al. (Guérin B., Labbe P. et Somlo, M. (1979) Methods Enzymol; 55, 149-159) is used. 36 hours before the extraction of the mitochondria a pre-culture in SP-medium (0.67% o nitrogenated yeast base, 0.1% KH2PO4, 0.12% (NH4)2SO4, 0.1% glucose, 2% lactic acid, 0.1% casaminoacids, 20 mg/l triptophane, 40 mg/1 adenine of pH 4.5), 10 or 12 hours before the extraction, a dilution in SP-medium (2% galactose, 0.67% nitrogenated yeast base, 0.1% casaaminoacids, 20 mg/l triptophane and […] adenine, at an optical density of 0.35-0.4).
Protoplasts are prepared by enzymatic digestion with cytohelicase and the mitochondria are isolated by differential centrifugation after homogenization of the protoplasts obtained by enzymatic digestion of the cell wall.
Only quantitative measurement of mitochondrial respiration has been made for UCP2. This measurement is made at 20° C. in an oxygen-electrode chamber (Clark electrode) commercialized by the company HANSATECH. The incubation medium contains 0.65M mannitol, […] Tris/Maleate, 0.5 mM EGTA, 2 mM MgC12, 10 mMK2hpo4, 1 mg/ml ([…]) albumin pH6.8).
Mitochondria concentration is 0.15 mg/ml. NADH (3 mM) is used as substrate as mitochondria of Saccharomyces cervisiae are capable of oxidizing NADH of external origin).
The tests are performed varying any of the pH or the terinoïc acid concentration in the medium. The concentrations of free retinoic acid are esteemed up to some tens of nanomars (determined by fixing the molar ratio retinoic acid:albumin). The concentration of albumin is 0.1 mg/ml […]) in the respiration buffer and the tested pH are respectively 6.8; 7.1; 7.3 or 7.5. The further components of the buffer are identical to those in example 1 and in the same concentrations.

UCP2 protein [2] = biological target: T1, UCP2 protein; assay: as above; type: biochemical, mice; conditions: FIG. 5; molar ratio acid:albumin 3:1 and 4:1
UCP1 protein [3] = biological target: T2, UCP1 protein (Rattus norvegicus, UniProt P04633); assay: Respiration stimulation factor in mitochondria of recombinant yeast expressing UCP1; type: biochemical
T2 construct: The cDNA of the UCP1 protein which lacks the untranslated regions at 3′ and 5′ is obtained by enzymatic amplification; expressed in transfected cells; host or cells: Saccharomyces cerevisiae, vector pYeDP-1/8-10 (plasmid pYeDP-UCP+); isolated mitochondria
T2 sequence (P04633 1-307): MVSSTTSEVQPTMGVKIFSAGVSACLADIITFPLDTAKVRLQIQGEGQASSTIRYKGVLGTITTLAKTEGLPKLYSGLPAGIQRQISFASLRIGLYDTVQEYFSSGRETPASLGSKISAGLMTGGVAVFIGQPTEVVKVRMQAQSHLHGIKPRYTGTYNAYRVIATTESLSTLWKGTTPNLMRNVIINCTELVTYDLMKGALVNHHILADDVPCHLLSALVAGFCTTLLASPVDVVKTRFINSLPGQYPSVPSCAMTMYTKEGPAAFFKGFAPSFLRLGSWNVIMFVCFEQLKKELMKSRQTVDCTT
Experimental: as §1, §2
FIG. 2 represents a curve of response of yeast mitochondria to retinoic acid. In the abscissa, there appears the molar ratio of retinoic acid/albumin (albumin concentration: 1 micromole within the medium); in the ordinate, there appears the factor of stimulation of the baseline respiration. FIG. 2a was obtained at pH 6.8 and figure at pH 7.3.
The construction of the expression vectors, the recombinant Saccharomyces cervisiae strains, the preparation of the mitochondria and the measurement of the activity of the UCP1 protein are described in the publication of Arechaga et al. already cited in example 1. […]

UCP1 protein [4] = biological target: T2, UCP1 protein; assay: Membrane potential of yeast mitochondria expressing UCP1; type: biochemical; conditions: FIG. 6b, molar ratio retinoic acid:albumin 2:1 and 4:1
Text: There is also a qualitative method for determining the uncoupling activity of an UCP protein. It is the measurement of the mitochondrial membrane potential the reduction of which is an evidence of the decrease of the quality of the recovery of chemical energy at the level of the mitochondria. Activation of an uncoupling protein is reflected by de decrease of the membrane potential followed by an acceleration of the respiration.
FIG. 6 evidences the variation in the membrane potentials and respiration of mitochondria in yeasts (reflecting the uncoupling activity of UCP1 protein) under the effect of the retinoic acid. The upper curve reflects oxygen consumption (expressed in nanomoles of oxygen per minute per milligram of mitochondrial proteins) and the lower curve the membrane potentials. […]
This activity may be measured qualitatively or quantitatively, with the help of the parameters: • qualitatively: • The mitochondrial membrane potential; the increase of the activity of an uncoupling protein is reflected by a reduction of the membrane potential and a resulting increase in oxygen consumption. In turn, the increase corresponds to an increase in dissipation of energy. • quantitatively: • mitochondrial respiration (oxygen consumption) which is linked directly to the quantity of substrate consumed by the mitochondria. […]

[5] = system: yeast mitochondria lacking UCP proteins; assay: Membrane potential of yeast mitochondria lacking UCP proteins (control); type: biochemical, Saccharomyces cervisiae; conditions: FIG. 6a
Text: FIG. 6 evidences the variation in the membrane potentials and respiration of mitochondria in yeasts (reflecting the uncoupling activity of UCP1 protein) under the effect of the retinoic acid. The upper curve reflects oxygen consumption (expressed in nanomoles of oxygen per minute per milligram of mitochondrial proteins) and the lower curve the membrane potentials. FIG. 6a corresponds to measurements made in yeast mitochondria lacking UCP proteins and FIG. 6b corresponds to measurements made in yeast mitochondria wherein UCP1 protein is expressed. • N: designates the addition of NADH (respitation substrate) • R: designates the addition of retinoic acid (respectively at a molar ratio retinoic acid:albumin of 2:1 and 4:1) • G: designates the addition of 1 millimolar guanosine diphosphate (an inhibitor of UCP1 protein).

CC1=CC(=O)CC(C)(C)C1(O)/C=C/C(C)=C\C(=O)O (centres unmarked) [abscissic acid]
activation of the activity of UCP2 protein (UCP2 protein [1]): No activation

CCCCC/C=C\C/C=C\C/C=C\C/C=C\CCCC(=O)O [arachidonic acid]
activation of the activity of UCP2 protein (UCP2 protein [1]): No activation

CCCCCCCCCCCCCCCC(=O)O [palmitic acid]
activation of the activity of UCP2 protein (UCP2 protein [1]): does not have any effect; also recorded: not the case | change of UCP2 activity with the pH and the increase of the concentration of palmitic acid (UCP2 protein [2]): slight increase

CC1=C(/C=C/C(C)=C/C=C/C(C)=C/C(=O)O)C(C)(C)CCC1 [retinoic acid, all-trans retinoic acid]
change of the activity of UCP2 protein when the concentration of retinoic acid increases (UCP2 protein [1]; molar ratio retinoic acid/albumin 3:1 vs 4:1, FIGS. 4a and 4b): slight increase | increase of the activity of UCP2 (respiration stimulation factor) (UCP2 protein [1]; pH 6.8, FIG. 2a): no notable increase; also recorded: not the case | increase of the activity of UCP2 (respiration stimulation factor) (UCP2 protein [1]; pH 7.3, FIG. 2b): the increase is very sensitive | activation of the activity of UCP2 protein (UCP2 protein [1]): activates the dissipation of energy by UCP2 | response of UCP1 protein (respiration stimulation factor) (UCP1 protein [3]; pH 6.8, FIG. 2a): responds | response / uncoupling activity of UCP1 protein (UCP1 protein [3]; pH not stated, FIG. 3a for palmitic acid): capable of increasing the uncoupling activity | effect on mitochondrial membrane potential (UCP1 protein [4]): induces a reduction of the membrane potential | effect on mitochondrial membrane potential [5]: not observed

CC1=C(/C=C/C(C)=C/C=C/C(C)=C/CO)C(C)(C)CCC1 [retinol]
activation of the activity of UCP2 protein (UCP2 protein [1]): No activation

O=C(O)c1ccccc1O [salicylic acid]
activation of the activity of UCP2 protein (UCP2 protein [1]): No activation
